In ChEMBL document CHEMBL1129029, “Understanding the binding of 5-substituted 2'-deoxyuridine substrates to thymidine kinase of herpes simplex virus type-1” (J Med Chem, 1996) one finds IC50 data, which are given here for 16 molecules.

The target of the test is T1, Thymidine kinase (Human herpesvirus 1 (strain SC16) (HHV-1) (Human herpes simplex virus1), UniProt P06479).
T1 sequence (P06479 whole entry): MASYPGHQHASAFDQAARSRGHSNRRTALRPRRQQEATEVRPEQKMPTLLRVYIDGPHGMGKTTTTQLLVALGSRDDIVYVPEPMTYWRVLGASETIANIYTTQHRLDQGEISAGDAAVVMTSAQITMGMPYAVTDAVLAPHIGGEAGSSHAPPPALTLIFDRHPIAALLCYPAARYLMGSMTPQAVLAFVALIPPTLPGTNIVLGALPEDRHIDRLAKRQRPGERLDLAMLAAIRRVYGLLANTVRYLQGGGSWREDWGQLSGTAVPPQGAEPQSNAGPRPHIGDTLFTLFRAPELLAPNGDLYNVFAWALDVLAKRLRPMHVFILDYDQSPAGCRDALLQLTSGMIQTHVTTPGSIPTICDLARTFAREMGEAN
Kind of test: Binding affinity towards HSV-1 thymidine kinase.

One may read the IC50 as the midpoint of a concentration-inhibition curve. In turn, `O=c1[nH]c(=O)n([C@H]2C[C@H](O)[C@@H](CO)O2)cc1-c1ccc(Br)s1` had an IC50 of 3.5 µM.

As to `O=c1[nH]c(=O)n([C@H]2C[C@H](O)[C@@H](CO)O2)cc1-c1ccoc1`, the IC50 came out at 1.5 µM.

The molecule `O=c1[nH]c(=O)n([C@H]2C[C@H](O)[C@@H](CO)O2)cc1-c1cccs1` yielded an IC50 of 2.4 µM.

As for `Cc1ccc(-c2cn([C@H]3C[C@H](O)[C@@H](CO)O3)c(=O)[nH]c2=O)s1`, the IC50 stood at 2.3 µM.

On to `O=c1[nH]c(=O)n([C@H]2C[C@H](O)[C@@H](CO)O2)cc1-c1ccno1`, for which the 50% inhibitory concentration (IC50) came to 36 µM.

As for `O=c1[nH]c(=O)n([C@H]2C[C@H](O)[C@@H](CO)O2)cc1-c1ccsc1`, the IC50 came out at 4 µM.

As for `O=c1[nH]c(=O)n([C@H]2C[C@H](O)[C@@H](CO)O2)cc1-c1ccc(Cl)s1`, the IC50 came to 2.3 µM.

Turning to `O=c1[nH]c(=O)n([C@H]2C[C@H](O)[C@@H](CO)O2)cc1-c1ccc(Cl)o1`, the IC50 was determined as 28 µM.

Consider `O=c1[nH]c(=O)n([C@H]2C[C@H](O)[C@@H](CO)O2)cc1-c1ccc(Br)o1`, for which the IC50 is 51 µM.

`O=c1[nH]c(=O)n([C@H]2C[C@H](O)[C@@H](CO)O2)cc1-c1ccco1` returned an IC50 of 2.9 µM.

In the case of `O=c1[nH]c(=O)n([C@H]2C[C@H](O)[C@@H](CO)O2)cc1-c1cc(Br)no1`, the IC50 was 34 µM.

`O=c1[nH]c(=O)n([C@H]2C[C@H](O)[C@@H](CO)O2)cc1-c1cscc1Br` gave an IC50 of 143 µM.

For the molecule `O=c1[nH]c(=O)n([C@H]2C[C@H](O)[C@@H](CO)O2)cc1-c1sc(Br)cc1Br`, the half-maximal inhibitory concentration (IC50) stood at 62 µM. Against the preceding molecule, the IC50 is about 2.3-fold lower.

`O=c1[nH]c(=O)n([C@H]2C[C@H](O)[C@@H](CO)O2)cc1-c1ccccc1` returned an IC50 of 102 µM. This IC50 lies about 1.6-fold higher than the previous one.

For the molecule `O=c1[nH]c(=O)n([C@H]2C[C@H](O)[C@@H](CO)O2)cc1-c1sccc1Br`, the IC50 worked out at 61 µM. Against the preceding molecule, the IC50 is about 1.7-fold lower.

As for `O=c1[nH]c(=O)n([C@H]2C[C@H](O)[C@@H](CO)O2)cc1-c1ccns1`, the IC50 came out at 3.1 µM.
